test system: Streptococcus mutans; assay: Substrate activity at 6xHis-tagged Streptococcus mutans UdpK expressed in Escherichia coli BL-21(DE3) assessed as measuring ADP level in presence of ATP/NADH by PK/LDH coupled assay; conditions: not given

Row | Activity [µmol/mg/min] | Compound
1 | 3.8 | CC(C)=CCC/C(C)=C/CC/C(C)=C/CC/C(C)=C/CC/C(C)=C\CC/C(C)=C\CC/C(C)=C\CC/C(C)=C\CC/C(C)=C\CC/C(C)=C\CO
2 | 4.9 | CC(C)=CCC/C(C)=C/CC/C(C)=C/CC/C(C)=C/CC/C(C)=C/CC/C(C)=C/CC/C(C)=C/CC/C(C)=C/CC/C(C)=C/CO
3 | 3.8 | CC(C)=CCC/C(C)=C/CC/C(C)=C/CC/C(C)=C\CC/C(C)=C\CC/C(C)=C\CC/C(C)=C\CC/C(C)=C\CO

Second part, the compound before the results:

Row | Compound | Activity [µmol/mg/min]
4 | CC(C)=CCC/C(C)=C/CO | 6.2
5 | C/C(=C/CO)CC/C=C(/C)CC/C=C(/C)CC/C=C(\C)CC/C=C(\C)CNS(=O)(=O)c1ccc(N=Nc2ccc(N(C)C)cc2)cc1 | 4.1
6 | CCCCCCCCCCCCCCCCCCCCO | 1.3
7 | CCCCCCCCCCCO | 2.1
8 | CC(C)=CCC/C(C)=C/CC/C(C)=C/CO | 11.5
9 | C/C(=C\CO)CCCC(C)CCCC(C)CCCC(C)C (stereo unspecified) | 5.6
10 | CC(C)=CCC/C(C)=C/CC/C(C)=C/CC/C(C)=C\CC/C(C)=C\CC/C(C)=C\CC/C(C)=C\CO | 8.8
11 | CC(C)=CCC/C(C)=C\CC/C(C)=C\CO | 21.2
12 | CC(C)=CCC/C(C)=C/CC/C(C)=C/CC/C(C)=C/CO | 9.3
13 | C/C(=C/CO)CC/C=C(\C)CC/C=C(\C)CC/C=C(\C)CC/C=C(\C)CNS(=O)(=O)c1ccc(N=Nc2ccc(N(C)C)cc2)cc1 | 5.9
14 | C/C(=C/CO)CC/C=C(/C)CC/C=C(\C)CC/C=C(\C)CC/C=C(\C)CNS(=O)(=O)c1ccc(N=Nc2ccc(N(C)C)cc2)cc1 | 4
15 | CCCCCCCCCCCCCCCCO | 1.9
16 | C/C(=C\CO)CC/C=C(\C)CC/C=C(\C)CC/C=C(\C)CC/C=C(\C)CNS(=O)(=O)c1ccc(N=Nc2ccc(N(C)C)cc2)cc1 | 3.3
17 | CC(C)=CCC/C(C)=C/CC/C(C)=C/CC/C(C)=C\CC/C(C)=C\CC/C(C)=C\CC/C(C)=C\CC/C(C)=C\CC/C(C)=C\CC/C(C)=C\CC/C(C)=C\CC/C(C)=C\CCC(C)CCO (stereo unspecified) | 4.5
18 | CC(C)=CCC/C(C)=C/CC/C(C)=C\CO | 5.4

test system: Streptococcus mutans; assay: Substrate activity at wild-type Streptococcus mutans UdpK expressed in Escherichia coli C43(DE3) in presence of ATP/NADH by PK/LDH coupled assay; conditions: not given

Row | Activity [µmol/mg/min] | Compound
19 | 9 | C/C(=C/CO)CC/C=C(/C)CC/C=C(/C)CC/C=C(/C)CC/C=C(/C)CC/C=C(/C)CC/C=C(/C)CC/C=C(\C)CC/C=C(\C)CC/C=C(\C)CCCNc1ccc([N+](=O)[O-])cc1
20 | 3.4 | C/C(=C/CC/C(C)=C\CC/C(C)=C\CC/C(C)=C\COC1CCCCO1)CC/C=C(/C)CC/C=C(/C)CC/C=C(/C)CC/C=C(\C)CC/C=C(\C)CC/C=C(\C)CCCO (stereo unspecified)
21 | 10.8 | C/C(=C/CO)CC/C=C(/C)CC/C=C(/C)CC/C=C(/C)CC/C=C(/C)CC/C=C(/C)CC/C=C(/C)CC/C=C(\C)CC/C=C(\C)CC/C=C(\C)CCCN=[N+]=[N-]
22 | 9 | C#Cc1cccc(NCCC/C(C)=C/CC/C(C)=C/CC/C(C)=C/CC/C(C)=C\CC/C(C)=C\CC/C(C)=C\CC/C(C)=C\CC/C(C)=C\CC/C(C)=C\CC/C(C)=C\CO)c1
23 | 7.1 | C#CCNCCC/C(C)=C/CC/C(C)=C/CC/C(C)=C/CC/C(C)=C\CC/C(C)=C\CC/C(C)=C\CC/C(C)=C\CC/C(C)=C\CC/C(C)=C\CC/C(C)=C\CO
24 | 8.1 | C/C(=C/CO)CC/C=C(/C)CC/C=C(/C)CC/C=C(/C)CC/C=C(/C)CC/C=C(/C)CC/C=C(/C)CC/C=C(\C)CC/C=C(\C)CC/C=C(\C)CCC1OC1(C)C (stereo unspecified)
25 | 11.8 | CC(=O)SCCC/C(C)=C/CC/C(C)=C/CC/C(C)=C/CC/C(C)=C\CC/C(C)=C\CC/C(C)=C\CC/C(C)=C\CC/C(C)=C\CC/C(C)=C\CC/C(C)=C\CO
26 | 6.9 | C/C(=C/CO)CC/C=C(/C)CC/C=C(/C)CC/C=C(/C)CC/C=C(/C)CC/C=C(/C)CC/C=C(/C)CC/C=C(\C)CC/C=C(\C)CC/C=C(\C)CCCNc1ccccc1C(N)=O
27 | 9.4 | C/C(=C/CO)CC/C=C(/C)CC/C=C(/C)CC/C=C(/C)CC/C=C(/C)CC/C=C(/C)CC/C=C(/C)CC/C=C(\C)CC/C=C(\C)CC/C=C(\C)CCCNc1ccc(N=[N+]=[N-])cc1
28 | 5.1 | C/C(=C/CO)CC/C=C(/C)CC/C=C(/C)CC/C=C(/C)CC/C=C(/C)CC/C=C(/C)CC/C=C(/C)CC/C=C(\C)CC/C=C(\C)CC/C=C(\C)CCCNC1CC(C)(C)N([O])C(C)(C)C1

Further lines, the compound ahead of its results:

Row | Compound | Activity [µmol/mg/min]
29 | C/C(=C/CO)CC/C=C(/C)CC/C=C(/C)CC/C=C(/C)CC/C=C(/C)CC/C=C(/C)CC/C=C(/C)CC/C=C(\C)CC/C=C(\C)CC/C=C(\C)CCCNCc1ccc(C2(C(F)(F)F)N=N2)cc1 | 5.1
30 | C/C(=C/CO)CC/C=C(/C)CC/C=C(/C)CC/C=C(/C)CC/C=C(/C)CC/C=C(/C)CC/C=C(/C)CC/C=C(\C)CC/C=C(\C)CC/C=C(\C)CCCNc1cc2ccc3cccc4ccc(c1)c2c34 | 6.2

same assay, conditions: tested as the 2H-labelled form

Row | Activity [µmol/mg/min] | Compound
31 | 9.4 | CC(C)=CCC/C(C)=C/CC/C(C)=C/CC/C(C)=C/CC/C(C)=C\CC/C(C)=C\CC/C(C)=C\CC/C(C)=C\CC/C(C)=C\CC/C(C)=C\CC/C(C)=C\CO

— ChEMBL document CHEMBL5104096, “Undecaprenol kinase: Function, mechanism and substrate specificity of a potential antibiotic target” (Eur J Med Chem, 2021)
